Measured values from patent US9221870B2, “Crystal form of an organic compound and process for the preparation thereof” (Richter Gedeon Nyrt., priority 2009, dated 2015).
Values after ≈ are worked out from the molar mass of the structure shown.

How the values were obtained:
Format in all cases: physicochemical
[1] = Fast stability test (storage on a plate at 40° C. in air, impurity by HPLC); details: for Impurity / N-demethyl-derivative of CDB-4124: HPLC; for Impurity, Σ (increase Day 0 to Day 10) / N-demethyl-derivative of CDB-4124, Σ (increase Day 0 to Day 10): Σ over 10 days, in the presence of air
Method: Amorphous and crystalline forms were stored on a plate at 40° C. in the presence of air for 10 days. Impurity was measured at different times using an HPLC equipment. […]

[2] = Solubility at 25° C. in solvent (MeOH)
Excerpt: Form I is a monotropic modification of CDB-4124 such as Form II. […] Furthermore, Form I can be transformed into Form II via crystallization from different medium.

[3] = Water adsorption by dynamic vapour sorption (DVS); details: 25° C., 0%-95% relative humidity, adsorption-desorption
Method: Water adsorption properties of the crystalline Form II of CDB-4124 were measured by dynamic vapour sorption technique (DVS). […]

| SMILES | Impurity ([1]; Day 0, in the presence of air) | N-demethyl-derivative of CDB-4124 ([1]; Day 0, in the presence of air) | Impurity ([1]; Day 1, in the presence of air) | N-demethyl-derivative of CDB-4124 ([1]; Day 1, in the presence of air) | Impurity ([1]; Day 2, in the presence of air) | N-demethyl-derivative of CDB-4124 ([1]; Day 2, in the presence of air) | Impurity ([1]; Day 6, in the presence of air) | N-demethyl-derivative of CDB-4124 ([1]; Day 6, in the presence of air) | Impurity ([1]; Day 10, in the presence of air) | N-demethyl-derivative of CDB-4124 ([1]; Day 10, in the presence of air) | Impurity, Σ (increase Day 0 to Day 10) [1] | N-demethyl-derivative of CDB-4124, Σ (increase Day 0 to Day 10) [1] | solubility [2] | change of mass as the degree of humidity was increased [3] |
| --- | --- | --- | --- | --- | --- | --- | --- | --- | --- | --- | --- | --- | --- | --- |
| COCC(=O)[C@@]1(OC(C)=O)CC[C@H]2[C@@H]3CCC4=CC(=O)CCC4=C3[C@@H](c3ccc(N(C)C)cc3)C[C@@]21C [Amorphous form, 17α-acetoxy-21-methoxy-11β-[4-N,N-dimethylaminophenyl]-19-norpregna-4,9-diene-3,20-dione, reference compound] | 0.87% | 0.15% | 0.97% | 0.21% | 1.03% | 0.25% | 1.63% | 0.55% | 1.97% | 0.73% | 1.1% | 0.58% |  |  |
| COCC(=O)[C@@]1(OC(C)=O)CC[C@H]2[C@@H]3CCC4=CC(=O)CCC4=C3[C@@H](c3ccc(N(C)C)cc3)C[C@@]21C [Form I, 17α-acetoxy-21-methoxy-11β-[4-N,N-dimethylaminophenyl]-19-norpregna-4,9-diene-3,20-dione, reference compound] |  |  |  |  |  |  |  |  |  |  |  |  | 500 mg/mL (≈ 989 mM) |  |
| COCC(=O)[C@@]1(OC(C)=O)CC[C@H]2[C@@H]3CCC4=CC(=O)CCC4=C3[C@@H](c3ccc(N(C)C)cc3)C[C@@]21C [Form II, 17α-acetoxy-21-methoxy-11β-[4-N,N-dimethylaminophenyl]-19-norpregna-4,9-diene-3,20-dione] | 0.14% | 0.02% | 0.14% | 0.02% | 0.14% | 0.02% | 0.15% | 0.02% | 0.17% | 0.03% | 0.03% | 0.01% | 23 mg/mL (≈ 45.5 mM) | barely changed |
